The test system of the test is Aβ40 in conditioned medium of cells stably expressing Amyloid Precursor Protein (APP). In words: In vitro BACE cell-based assay (HEK cell assay), Aβ40 sandwich ELISA. The conditions noted are these: Homo sapiens, HEK293. As for the experimental part: In Vitro BACE Cell-Based Assay
The cell-based assay measures inhibition or reduction of Aβ40 in conditioned medium of test compound treated cells expressing amyloid precursor protein.
Cells stably expressing Amyloid Precursor Protein (APP) were plated at a density of 40K cells/well in 96 well plates (Costar). The cells were cultivated for 24 hours at 37C. and 5% CO2 in DMEM supplemented with 10% FBS. The test compounds were then added to cells in 10-point dose response concentrations with the starting concentration being either 100 μM or 10 μM. The compounds were diluted from stock solutions in DMSO and the final DMSO concentration of the test compounds on cells was 0.1%. After 24 h of incubation with the test compounds the supernatant conditioned media was collected and the Aβ 40 levels were determined using a sandwich ELISA. The IC50 of the compound was calculated from the percent of control or percent inhibition of Aβ 40 as a function of the concentration of the test compound.
The sandwich ELISA to detect Aβ 40 was performed in 96 well microtiter plates, which were pre-treated with goat anti-rabbit IgG (Pierce). The capture and detecting antibody pair that were used to detect Aβ 40 from cell supernatants were affinity purified pAb40 (Biosource) and biotinylated 6E10 (Signet Labs Inc.), respectively. The optimal concentration for the pAb40 antibody was 3 μg/ml in Superblock/TBS (Pierce) that was supplemented with 0.05% Tween 20 (Sigma). Optimal concentration for the detection antibody 6E10-biotinylated was 0.5 μg/ml in Superblock/TBS (Pierce) that had been supplemented with 2% normal goat serum and 2% normal mouse serum.
Cellular supernatants were incubated with the capture antibody for 3 h at 4° C., followed by 3 wash steps in TBS-tween (0.05%). The detecting antibody incubation was for 2 h at 4° C., again followed by the wash steps as described previously. The final readout of the ELISA is Time-Resolved Fluorescence (counts per minute) using Delfia reagents Streptavidin-Europium and Enhancement solutions (Perkin Elmer) and the Victor 2 multilabel counter (Perkin Elmer).

For 9 molecules, IC50 results are on record in US20140107109A1, “AMINO-DIHYDROTHIAZINE AND AMINO-DIOXIDO DIHYDROTHIAZINE COMPOUNDS AS BETA-SECRETASE ANTAGONISTS AND METHODS OF USE” (Amgen Inc., priority 2012, published 2014).

By IC50 is commonly meant the point on the concentration scale where inhibition reaches its midpoint. High values mean lower potency, low ones higher potency. For the setting “Aβ40, 24 h incubation”, `COc1cnc2c(Nc3cnc(F)c([C@]4(C)CS(=O)(=O)C(C)(C)C(N)=N4)c3)nccc2c1` [Example 66, N-(5-((3R)-5-amino-3,6,6-trimethyl-1,1-dioxido-3,6-dihydro-2H-1,4-thiazin-3-yl)-6-fluoro-3-pyridinyl)-3-methoxy-1,7-naphthyridin-8-amine] yielded an IC50 of 0.0067 µM.

`CC1(C)C(N)=NC2(c3cc(Br)ccc3F)COCC2S1(=O)=O` (stereo not drawn) [Example 185, 3-amino-4a-(5-bromo-2-fluorophenyl)-2,2-dimethyl-4a,5,7,7a-tetrahydro-2H-furo[3,4-b][1,4]thiazine 1,1-dioxide]: the half-inhibitory concentration (IC50) (average IC50, cell assay) was > 15.6 µM.

Take `COc1cnc(C(=O)Nc2ccc(F)c(C3(C(F)(F)F)CS(=O)(=O)C(C)(C)C(N)=N3)c2)cn1` (stereo in doubt) [Example 34, N-(3-((3R)-5-amino-6,6-dimethyl-1,1-dioxido-3-(trifluoromethyl)-3,6-dihydro-2H-1,4-thiazin-3-yl)-4-fluorophenyl)-5-methoxy-2-pyrazinecarboxamide]: where the note is “Aβ40, 24 h incubation”, the IC50 is > 10 µM.

As to `CC1(C)C(N)=N[C@@]2(c3cc(N)ccc3F)COC[C@H]2S1(=O)=O` [Example 185c, (4aS,7aS)-3-amino-4a-(5-amino-2-fluorophenyl)-2,2-dimethyl-4a,5,7,7a-tetrahydro-2H-furo[3,4-b][1,4]thiazine 1,1-dioxide], where the note is “average IC50, HEK cells”, the IC50 is > 15.6 µM.

`CC1(C)C(N)=N[C@]2(c3cc(Br)ccc3F)COC[C@@H]2S1(=O)=O` [Example 185b, (4aR,7aR)-3-amino-4a-(5-bromo-2-fluorophenyl)-2,2-dimethyl-4a,5,7,7a-tetrahydro-2H-furo[3,4-b][1,4]thiazine 1,1-dioxide]: the IC50 (average IC50, cell assay) was > 15.6 µM.

For the molecule `CC1(C)C(N)=N[C@]2(c3cc(N)ccc3F)COC[C@@H]2S1(=O)=O` [Example 185d, (4aR,7aR)-3-amino-4a-(5-amino-2-fluorophenyl)-2,2-dimethyl-4a,5,7,7a-tetrahydro-2H-furo[3,4-b][1,4]thiazine 1,1-dioxide], the half-maximal inhibitory concentration (IC50) (average IC50, HEK cells) is > 15.6 µM.

As to `COc1cnc(C(=O)Nc2ccc(F)c([C@]3(C)CSCC(N)=N3)c2)cn1` [Example 43, (R)—N-(3-(5-amino-3-methyl-3,6-dihydro-2H-1,4-thiazin-3-yl)-4-fluorophenyl)-5-methoxypyrazine-2-carboxamide], the concentration for half-maximal inhibition (IC50) (Aβ40, 24 h incubation) was determined as 0.007 µM. This lies in the single-digit nanomolar range.

In the case of `CC1(C)C(N)=N[C@@]2(c3cc(Br)ccc3F)COC[C@H]2S1(=O)=O` [Example 185a, (4aS,7aS)-3-amino-4a-(5-bromo-2-fluorophenyl)-2,2-dimethyl-4a,5,7,7a-tetrahydro-2H-furo[3,4-b][1,4]thiazine 1,1-dioxide], the IC50 (average IC50, cell assay) is > 15.6 µM.

In turn, `CC1(C)C(N)=N[C@](CF)(c2cc(Nc3nncc4cc(Cl)ccc34)ccc2F)CS1(=O)=O` [Example 450, N-(3-((3S)-5-amino-3-(fluoromethyl)-6,6-dimethyl-1,1-dioxido-3,6-dihydro-2H-1,4-thiazin-3-yl)-4-fluorophenyl)-6-chloro-1-phthalazinamine] displayed an IC50 (average IC50, cell assay) of 0.7 µM.
